Assay results reported in ChEMBL document CHEMBL5543158, “Design of Evodiamine-Glucose Conjugates with Improved In Vivo Antitumor Activity” (J Med Chem, 2024).
Converted amounts (≈) assume the structure as drawn.

Columns and labels:
[1] = Toxicity in mouse xenografted with human HCT-116 cells assessed as liver damage by measuring enlarged sizes of vacuole at 5 mg/kg, ip twice a day administered 21 consecutive days; format: organism-based; details: in vivo
[2] = Cytotoxicity against HUVEC after 72 hrs by CCK-8 assay; format: toxicity, cell-based; details: human, HUVEC cells
[3] = Toxicity in mouse xenografted with human HCT-116 cells assessed as organ damage by measuring thickened alveolar wall in lungs at 5 mg/kg, ip twice a day administered 21 consecutive days; format: organism-based; details: in vivo
[4] = Toxicity in mouse xenografted with human HCT-116 cells assessed as organ damage by measuring change in spleen at 5 mg/kg, ip twice a day administered 21 consecutive days; format: organism-based; details: in vivo
HCT-116 [5] = test: Antiproliferative activity against human HCT116 cells in presence of 10 uM phloretin measured after 72 hrs by CCK-8 assay; format: functional, cell-based; details: HCT-116, 72 h
[6] = Toxicity in mouse xenografted with human HCT-116 cells assessed as kidney damage by measuring atrophy of glomeruli at 5 mg/kg, ip twice a day administered 21 consecutive days; format: organism-based; details: in vivo
[7] = Solubility of the compound in double distilled water measured upto 30 mins by UV-vis spectrophotometry; format: physicochemical
HCT-116 [8] = test: Antiproliferative activity against human HCT116 cells in presence of 5 uM phloretin measured after 72 hrs by CCK-8 assay; format: functional, cell-based; details: HCT-116, 72 h
[9] = Toxicity in mouse xenografted with human HCT-116 cells assessed as organ damage by measuring change in heart at 5 mg/kg, ip twice a day administered 21 consecutive days; format: organism-based; details: in vivo
HCT-116 [10] = test: In vivo antitumor effect in human HCT-116 cells xenografted mouse model assessed as tumor growth inhibition at 5 mg/kg, ip twice a day administered 21 consecutive days; format: functional; details: read-out: TGI

IC50 (HCT-116 [5]): 545 nM
solubility at 0.5 h [7]: 145 µg/mL (≈ 430 µM)
IC50 (HCT-116 [8]): 54 nM
Structure (SMILES): CN1c2ccc(F)cc2C(=O)N2CCc3c([nH]c4ccc(O)cc34)[C@H]21
Activity [1]: Toxic
IC50 at 72 h [2]: 16 nM
Activity [3]: Toxic
Activity [4]: Toxic
Activity [6]: Toxic
Activity [9]: Toxic
inhibition in vivo at 5 mg/kg (HCT-116 [10]): 51%
